Laboratory results taken from patent US11300509B2, “Cleavable linkers for protein translation reporting” (9412-1126 Québec inc., priority 2020, dated 2022).
No end group written: not given here.

Key:
[1] = target: T1, Cherry1-10 (Discosoma sp., UniProt Q9U6Y8, A164R/C117E/F124L/F177V/H162N/H41T/I125L/I180T/K163Q/K83L/K92T/L150M/L174D/M182K/N42Q/Q66M/R153E/R17H/R36H/S179T/S197I/T21S/V127T/V156A/V175A/V44A/V71A/Y192A/Y194N); assay: In vitro reconstitution of split Cherry: Cherry11 peptide mixed with Cherry1-10; format: binding
T1 construct: made in house; host or cells: Escherichia coli BL21(DE3)
Description: Fluorescence output was recorded every 0.1 seconds for a duration of 30 seconds.
In vitro fluorescence complementation was performed by mixing purified XFP1-10 protein and chemically synthesized XFP11 peptides and the fluorescence intensity of the reaction was collected with a StepOnePlus real-time thermal cycler (Thermo-Fisher). […] XFP1-10 in TNG buffer or PBS (varied pH) was added to wells of a 96-well microplate coated with 1 mM bovine serum albumin and allowed to equilibrate for 60 seconds. XFP11 peptide was added according to different final peptide concentrations and the microplate was immediately loaded into the fluorescence reader. The fluorescence intensity was measured every 10 seconds for 45 minutes at 32° C. or 37° C. with 495 nm excitation and 520 nm emission. The fluorescence intensity was normalized to the initial fluorescence intensity to express relative fluorescence increase upon fluorescence reconstitution. […] Standard curves for XFP fluorescence measurements were generated by either using reconstituted XFP or XFP purified from E. coli using GFP specific chromatography columns (Bio-Rad). XFP protein concentration was determined using the Bradford assay and absorbance readings at 280 nm with a NanoDrop 2000 (Thermo-Fisher). Samples were serially diluted (1:10 or 1:5) and 10 μL samples were imaged to reduce any non-linear fluorescence excitation effects. […]

[2] = target: T2, GFP1-10 (Aequorea victoria, UniProt P42212, A206V/E111V/F64L/F99S/I128T/I167V/I171V/K166T/M153T/N105K/Q80R/S205T/S30R/S65T/V163A/Y145F/Y39I); assay: In vitro reconstitution (fluorescence complementation) of split GFP: GFP11 peptide mixed with purified GFP1-10; format: binding; set-up: half time of reconstitution: dose or concentration left out as unconfirmed; details: for observed rate constant (kobs) of GFP11 peptide binding: pseudo-first order
T2 construct: Residues 1-213 of GFP, corresponding to the first 10 beta strands of GFP (GFP1-10); made in house; host or cells: Escherichia coli BL21(DE3)
Description: FIGS. 1F-G, relating to the stoichiometric production of GFP11 reporter as a function of time using a PTR linker to allow instantaneous detection of protein translation, are graphs that illustrate that reconstitution of split GFP as a function of seconds passed. […] Within the first second of reconstitution, i.e., in milliseconds, fluorescence emission begins (FIG. 1F), and the fluorescence intensity of the reaction rose logarithmically and began to saturate after 5 minutes (FIG. 1G). […] To obtain kinetic measurements of the reconstitution reaction at sub-second timescales, an ultrasensitive fluorescence spectrophotometer was used. A stopped-flow dispenser was used to mix and deliver known volumes of GFP1-10 and GFP11 proteins. This allowed the establishment of a to for the moment split GFP components first interact. […] Fluorescence increase over time from the bimolecular reaction was modeled as pseudo-first order and fit to a one phase association curve to determine the observed rate constant (kobs) of GFP11 peptide binding for each concentration of GFP11 tested. For 50 nM GFP11 and excess GFP1-10, the kobs is 0.003 s-1.
In the volume of a medium-size cell, the slower, lowest concentration reactions would generate tens of reconstituted molecules per second, and for the average protein synthesis hundreds per second. […].
In vitro fluorescence complementation was performed by mixing purified XFP1-10 protein and chemically synthesized XFP11 peptides and the fluorescence intensity of the reaction was collected with a StepOnePlus real-time thermal cycler (Thermo-Fisher). […] XFP11 peptide was added according to different final peptide concentrations and the microplate was immediately loaded into the fluorescence reader. The fluorescence intensity was measured every 10 seconds for 45 minutes at 32° C. or 37° C. with 495 nm excitation and 520 nm emission. The fluorescence intensity was normalized to the initial fluorescence intensity to express relative fluorescence increase upon fluorescence reconstitution. […] Standard curves for XFP fluorescence measurements were generated by either using reconstituted XFP or XFP purified from E. coli using GFP specific chromatography columns (Bio-Rad). XFP protein concentration was determined using the Bradford assay and absorbance readings at 280 nm with a NanoDrop 2000 (Thermo-Fisher). Samples were serially diluted (1:10 or 1:5) and 10 μL samples were imaged to reduce any non-linear fluorescence excitation effects. […] Total fluorescence intensity (in photon counts) was collected every 0.1 s or 0.01 s for varying durations.
Pearson's linear correlations were calculated by fitting the data to a simple linear regression model, with the coefficient of determination, R2. […]

| Substance | onset of reconstitution upon addition of peptide ([1]; Cherry1-10 and Cherry11 in vitro, FIG. 3E) | fluorescence signal strength of reconstitution ([1]; compared with split GFP and split Dendra2) | observed rate constant (kobs) of GFP11 peptide binding ([2]; 50 nM GFP11 and excess GFP1-10, one phase association fit) | half time of reconstitution ([2]; one phase association fit, FIG. 1G) | observed rate constant (kobs) of GFP11 peptide binding ([2]; one phase association fit, FIG. 1G, R2=0.99) | time to detection of green fluorescence upon mixing ([2]; stopped-flow mixing of GFP1-10 and GFP11) |
| --- | --- | --- | --- | --- | --- | --- |
| Cherry11: small fragment of split mCherry red fluorescent protein; purified peptide that reconstitutes with Cherry1-10 (MGGGGSGGGGSYTIVEQYERAEGRHSTGG) | immediately | overall weaker signal compared to split GFP and split Dendra2 | – | – | – | – |
| RDHMVLHEYVNAAGIT [GFP11] | – | – | 0.003 s⁻¹ | 95 s | 0.007 ± 0.0001 s⁻¹ | ≤ 100 ms |
